This is an account of results in US12077503B2, “Substituted cyclic amides and their use as herbicides” (FMC CORPORATION, priority 2015, dated 2024).

Molecules are shown by their SMILES. Where two headings read alike, the source gives them in different places.

Common to all, as to type: in vivo
The subject of assay [1] is ryegrass, Italian (Italian ryegrass, Lolium multiflorum). Nature of the assay: Test A preemergence. To be noted: Lolium multiflorum, pre-emergence, 240 h; for pest or weed control at 125 g/ha: 125 g ai/ha; for pest or weed control at 500 g/ha: 500 g ai/ha. Summed up:
(§1)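 Ratings of 0 (no effect) to 100 (complete control) come from visual comparison with untreated controls roughly 10 d after treatment. Test chemicals, formulated in a non-phytotoxic solvent mixture with surfactant, were applied either as a preemergence directed soil spray on seeded soil or postemergence to one- to two-leaf plants 2 to 10 cm tall.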

The test system of assay [2] is barnyardgrass (Echinochloa crus-galli). Nature of the assay: Test A preemergence. To be noted: Echinochloa crus-galli, pre-emergence, 240 h; for pest or weed control at 125 g/ha: 125 g ai/ha; for pest or weed control at 500 g/ha: 500 g ai/ha. The method in brief:
as §1

Assay [3] concerns giant foxtail (Setaria faberii). Nature of the assay: Test A preemergence. To be noted: Setaria faberi, pre-emergence, 240 h; for pest or weed control at 125 g/ha: 125 g ai/ha; for pest or weed control at 500 g/ha: 500 g ai/ha. The method in brief:
as §1

Assay [4] deals with Kochia (Kochia scoparia). Nature of the assay: Test A preemergence. To be noted: Bassia scoparia, pre-emergence, 240 h; for pest or weed control at 125 g/ha: 125 g ai/ha; for pest or weed control at 500 g/ha: 500 g ai/ha. Summed up:
as §1

The test system of assay [5] is pigweed (Amaranthus retroflexus). Nature of the assay: Test A preemergence. To be noted: Amaranthus retroflexus, pre-emergence, 240 h; for pest or weed control at 125 g/ha: 125 g ai/ha; for pest or weed control at 500 g/ha: 500 g ai/ha.
The test system of assay [6] is ragweed (common ragweed, Ambrosia elatior). Nature of the assay: Test A preemergence. To be noted: Ambrosia artemisiifolia, pre-emergence, 240 h; for pest or weed control at 125 g/ha: 125 g ai/ha; for pest or weed control at 500 g/ha: 500 g ai/ha. Summed up: as §1
Assay [7] has as its system wheat (Triticum aestivum). Nature of the assay: Test A postemergence. To be noted: Triticum aestivum, post-emergence, 240 h, 125 g ai/ha. The method in brief: as §1
In assay [8] the test system is ryegrass, Italian (Italian ryegrass, Lolium multiflorum). Nature of the assay: Test A postemergence. To be noted: Lolium multiflorum, post-emergence, 240 h, 125 g ai/ha. Summed up:
as §1

Another assay deals with corn (Zea mays). Nature of the assay: Test A postemergence. To be noted: Zea mays, post-emergence, 240 h, 125 g ai/ha. Summed up:
as §1

Assay [9] concerns barnyardgrass (Echinochloa crus-galli). Nature of the assay: Test A postemergence. To be noted: Echinochloa crus-galli, post-emergence, 240 h, 125 g ai/ha. Summed up:
as §1

The subject of assay [10] is giant foxtail (Setaria faberii). Nature of the assay: Test A postemergence. To be noted: Setaria faberi, post-emergence, 240 h, 125 g ai/ha. Summed up:
as §1

For assay [11], the system named is Kochia (Kochia scoparia). Nature of the assay: Test A postemergence. To be noted: Bassia scoparia, post-emergence, 240 h, 125 g ai/ha. The method in brief: as §1
The test system of assay [12] is Galium (catchweed bedstraw, Galium aparine). Nature of the assay: Test A postemergence. To be noted: Galium, post-emergence, 240 h, 125 g ai/ha. The method in brief:
as §1

Assay [13] has as its system blackgrass (Alopecurus myosuroides). Nature of the assay: Test A postemergence. To be noted: Alopecurus myosuroides, post-emergence, 240 h, 125 g ai/ha. Summed up: as §1
The test system of assay [14] is ragweed (common ragweed, Ambrosia elatior). Nature of the assay: Test A postemergence. To be noted: Ambrosia artemisiifolia, post-emergence, 240 h, 125 g ai/ha. The method in brief:
as §1

In the case of `Cc1ccc([C@H]2CNC(=S)[C@@H]2C(=O)Nc2cccc(F)c2F)cc1` (racemic) [Compound 946], the pest or weed control at 125 g/ha in assay [1] (Preemergence, visual injury rating after approximately 10 d, read-out: Ryegrass, Italian plant response rating (0 to 100 scale, 0 is no effect, 100 is complete control)) turned out to be 0%; in assay [2] (Preemergence, visual injury rating after approximately 10 d, read-out: Barnyardgrass plant response rating (0 to 100 scale, 0 is no effect, 100 is complete control)) it was 60%; in [3] (Preemergence, visual injury rating after approximately 10 d, read-out: Foxtail, Giant plant response rating (0 to 100 scale, 0 is no effect, 100 is complete control)), 0%; with Kochia (Kochia scoparia) [4] (Preemergence, visual injury rating after approximately 10 d, read-out: Kochia plant response rating (0 to 100 scale, 0 is no effect, 100 is complete control)) it was 0%; in assay [5] (Preemergence, visual injury rating after approximately 10 d, read-out: Pigweed plant response rating (0 to 100 scale, 0 is no effect, 100 is complete control)) it was 0%; in assay [6] (Preemergence, visual injury rating after approximately 10 d, read-out: Ragweed plant response rating (0 to 100 scale, 0 is no effect, 100 is complete control)), 0%. For the same compound, the pest or weed control at 125 g/ha stood at 0% in assay [8] (Postemergence, visual injury after approximately 10 d, 0 to 100 scale where 0 is no effect and 100 is complete control, read-out: Plant response rating, Ryegrass, Italian); 60% in [9] (Postemergence, visual injury after approximately 10 d, 0 to 100 scale where 0 is no effect and 100 is complete control, read-out: Plant response rating, Barnyardgrass); 0% in assay [10] (Postemergence, visual injury after approximately 10 d, 0 to 100 scale where 0 is no effect and 100 is complete control, read-out: Plant response rating, Foxtail, Giant); 0% with Kochia (Kochia scoparia) [11] (Postemergence, visual injury after approximately 10 d, 0 to 100 scale where 0 is no effect and 100 is complete control, read-out: Plant response rating, Kochia); 0% in assay [12] (Postemergence, visual injury after approximately 10 d, 0 to 100 scale where 0 is no effect and 100 is complete control, read-out: Plant response rating, Galium); 0% in assay [13] (Postemergence, visual injury after approximately 10 d, 0 to 100 scale where 0 is no effect and 100 is complete control, read-out: Plant response rating, Blackgrass). Moreover, the pest or weed control at 125 g/ha in assay [14] (Postemergence, visual injury after approximately 10 d, 0 to 100 scale where 0 is no effect and 100 is complete control, read-out: Plant response rating, Ragweed) was 0%. Further, the pest or weed control at 500 g/ha in assay [1] (preemergence, visual injury rating about 10 d after treatment, 0 to 100 scale (0 no effect, 100 complete control), read-out: Ryegrass, Italian plant response rating) was 0%; in [2] (preemergence, visual injury rating about 10 d after treatment, 0 to 100 scale (0 no effect, 100 complete control), read-out: Barnyardgrass plant response rating) it was 80%; in [3] (preemergence, visual injury rating about 10 d after treatment, 0 to 100 scale (0 no effect, 100 complete control), read-out: Foxtail, Giant plant response rating) it was 20%; with Kochia (Kochia scoparia) [4] (preemergence, visual injury rating about 10 d after treatment, 0 to 100 scale (0 no effect, 100 complete control), read-out: Kochia plant response rating), 50%; in assay [5] (preemergence, visual injury rating about 10 d after treatment, 0 to 100 scale (0 no effect, 100 complete control), read-out: Pigweed plant response rating), 0%; in assay [6] (preemergence, visual injury rating about 10 d after treatment, 0 to 100 scale (0 no effect, 100 complete control), read-out: Ragweed plant response rating) it was 0%. Besides, the plant injury at 125 g/ha in assay [7] (Postemergence, visual injury after approximately 10 d, 0 to 100 scale where 0 is no effect and 100 is complete control, read-out: Plant response rating, Wheat) came out at 0%. The Corn plant response rating (crop injury, 0 = no effect, 100 = complete kill) at 125 g/ha in the assay on corn (Zea mays) (Postemergence, visual injury after approximately 10 d, 0 to 100 scale where 0 is no effect and 100 is complete control) was 0%.
Take `CN1C[C@H](c2cccc(OC(F)(F)C(F)F)c2)[C@@H](C(=O)Nc2ccccc2S(C)(=O)=O)C1=O` [Compound 864]: the pest or weed control at 125 g/ha in assay [1] (preemergence, 0 to 100 scale where 0 is no effect and 100 is complete control, read-out: Ryegrass, Italian plant response rating) was found to be 0%; in assay [2] (preemergence, 0 to 100 scale where 0 is no effect and 100 is complete control, read-out: Barnyardgrass plant response rating), 90%; in assay [3] (preemergence, 0 to 100 scale where 0 is no effect and 100 is complete control, read-out: Foxtail, Giant plant response rating), 90%; in the assay on Kochia (Kochia scoparia) [4] (preemergence, 0 to 100 scale where 0 is no effect and 100 is complete control, read-out: Kochia plant response rating), 60%; in assay [5] (preemergence, 0 to 100 scale where 0 is no effect and 100 is complete control, read-out: Pigweed plant response rating), 90%; in assay [6] (preemergence, 0 to 100 scale where 0 is no effect and 100 is complete control, read-out: Ragweed plant response rating) it was 20%. For the same compound, the pest or weed control at 125 g/ha in assay [8] (postemergence, visual injury rating after approximately 10 d, read-out: Ryegrass, Italian plant response rating (0 to 100 scale, 0 no effect, 100 complete control)) came out at 50%; in [9] (postemergence, visual injury rating after approximately 10 d, read-out: Barnyardgrass plant response rating (0 to 100 scale, 0 no effect, 100 complete control)), 90%; in assay [10] (postemergence, visual injury rating after approximately 10 d, read-out: Foxtail, Giant plant response rating (0 to 100 scale, 0 no effect, 100 complete control)), 70%; with Kochia (Kochia scoparia) [11] (postemergence, visual injury rating after approximately 10 d, read-out: Kochia plant response rating (0 to 100 scale, 0 no effect, 100 complete control)), 0%; in assay [12] (postemergence, visual injury rating after approximately 10 d, read-out: Galium plant response rating (0 to 100 scale, 0 no effect, 100 complete control)), 20%; in assay [13] (postemergence, visual injury rating after approximately 10 d, read-out: Blackgrass plant response rating (0 to 100 scale, 0 no effect, 100 complete control)) it was 50%. Further, the pest or weed control at 125 g/ha in assay [14] (postemergence, visual injury rating after approximately 10 d, read-out: Ragweed plant response rating (0 to 100 scale, 0 no effect, 100 complete control)) amounted to 0%. Moreover, the pest or weed control at 500 g/ha in assay [1] (Preemergence, visual injury vs untreated controls after approximately 10 d, read-out: Ryegrass, Italian plant response rating (0 to 100 scale where 0 is no effect and 100 is complete control)) worked out at 50%; in assay [2] (Preemergence, visual injury vs untreated controls after approximately 10 d, read-out: Barnyardgrass plant response rating (0 to 100 scale where 0 is no effect and 100 is complete control)), 90%; in [3] (Preemergence, visual injury vs untreated controls after approximately 10 d, read-out: Foxtail, Giant plant response rating (0 to 100 scale where 0 is no effect and 100 is complete control)), 90%; in the assay with Kochia (Kochia scoparia) [4] (Preemergence, visual injury vs untreated controls after approximately 10 d, read-out: Kochia plant response rating (0 to 100 scale where 0 is no effect and 100 is complete control)), 80%; in [5] (Preemergence, visual injury vs untreated controls after approximately 10 d, read-out: Pigweed plant response rating (0 to 100 scale where 0 is no effect and 100 is complete control)), 90%; in assay [6] (Preemergence, visual injury vs untreated controls after approximately 10 d, read-out: Ragweed plant response rating (0 to 100 scale where 0 is no effect and 100 is complete control)), 50%. Also, the plant injury at 125 g/ha in assay [7] (postemergence, visual injury rating after approximately 10 d, read-out: Wheat plant response rating (0 to 100 scale, 0 no effect, 100 complete control)) stood at 50%; in the assay with corn (Zea mays) (postemergence, visual injury rating after approximately 10 d, read-out: Corn plant response rating (0 to 100 scale, 0 no effect, 100 complete control)), 60%.
